Data reported in US5843481A, “Treatment of proliferative disorders, metastasaes, and drug resistant tumors with vanadate compounds and derivatives or analogues thereof” (priority 1994, dated 1998).

How the values were obtained:
superoxides and H2O2 = experiment: Levels of superoxides and H2O2 in cells (conclusion of Example 1); format: cell-based, bovine; conditions: conclusion from results
Experimental: Bovine articular chondrocytes were isolated and plated as previously described (Kandel R. A. et al. Biochim. Biophys. Acta. 1053, 130-134, 1990). In order to determine the effect of orthovanadate on IL 1 and PMA (phorbol ester) induced responses, chondrocytes were incubated with orthovanadate (100 μM) for 2 hours before stimulation with IL 1 (10 ng/ml) or PMA ([…]). collagenase production was determined by incubating chondrocytes for 24 hours with IL 1 or PMA and the cell conditioned medium was assayed for collagenase activity using an ELISA procedure as described previously (Kandel et al. supra) PLA2 activity was measured by incorporating ^3 H-arachidonic acid (^3 H-AA) into the cells and then incubating the cells with medium containing 1 mg/ml BSA, either alone or in the presence of IL 1 or PMA, for 10 min. as previously described (Conquer, J. A. […], Biochim. Biophys. Acta. 1134, 1-6). The amount of ^3 H-AA liberated into the supernatant was determined. To measure PGE2 production, chondrocytes were incubated for 6 hours in Ham's F12 medium, either alone or with IL 1 or PMA. The supernatant was analyzed by RIA using an antibody specific for PGE2 (Dr. S. A. Jones, Mount Sinai Hospital, Toronto, Can.). In order to examine the expression of c-fos and c-jun, chondrocytes were incubated for 1 hour in the presence of IL-1, PMA or AA (3 μM). […]

MDAY-D2 [1] = experiment: MDAY-D2 tumor growth in mice, Example 6A; format: in vivo
Source text: (§1) In order to examine the ability of vanadyl compounds to reduce tumor formation, growth and metastases, a specific animal model which allows investigation of all of these processes in the same animal was chosen. This model involves the injection of a metastatic haematopoietic cell line, MDAY-D2, into mice subcutaneously. These cells form a tumor at the site of injection and its size can be easily determined. In addition, these cells metastasize to the liver and metastases can be detected histologically after day 17 to 19. This model provides a very sensitive and reproducible approach to investigate the effect of vanadyl compounds on tumor growth and metastases.
Using the animal model described above, the effect of subcutaneous administration of orthovanadate on tumor growth was investigated. A total of 15 mice were injected subcutaneously with 1×10^5 MDAY-D2 cells on Day 1. On Day 5, small tumors could be observed at the site of injection. Five mice were injected daily with 50 μl of water alone and 10 mice were injected daily with water containing 10 mg/ml orthovanadate. On day 14, the mice were sacrificed. The tumors were removed from all the animals, photographed, and weighed. FIG. 11 compares sizes of tumors from two untreated and two orthovanadate treated mice. […] In animals treated with water alone, four mice had tumors weighing between 1.18 and 1.68 gms.

MDAY-D2 [2] = experiment: Liver metastases of MDAY-D2 cells in mice (histology), Example 8; format: in vivo
Source text: as §1
Livers were removed from animals treated as described above and prepared for histological examination. FIG. 16 compares liver sections from untreated (C), orthovanadate (VO)(500 μg/day) and vanadyl sulphate (VS)(500 μg/day) treated animals. Nodules are identified with an arrow.

MDAY-D2 cells = experiment: Viability of MDAY-D2 cells with different vanadyl compounds; format: cell-based, mouse; conditions: 0-50 μM, 48 hours; FIG. 8
Experimental: Three different forms of vanadyl compounds were examined for their effect on viability of cancer cell lines. MDAY-D2 cells were incubated in media containing 0-50 μM orthovanadate, vanadyl sulphate, or vanadyl hydroperoxide for 48 hours. The cells were harvested and the number of viable cells determined. […] Although there were slight differences in sensitivity, the overall cell death was similar.

MDAY-D2 [3] = experiment: MDAY-D2 tumor growth in mice, combination therapy, Example 7; format: in vivo
Experimental: Twenty mice were injected subcutaneously with 2×10^5 cells on Day 1. At day 4, the mice were divided into four groups of five mice. Group one (control) received subcutaneous injections of 50 μl of water. Group two received daily intraperitoneal injections of 50 μl of 250 mM N-acetylcysteine. Group three received daily subcutaneous injections of 50 μl of 10 mg/ml of orthovanadate. Group four received daily intraperitoneal injections of 50 μl of […] N-acetylcysteine and 20 minutes later received 50 μl of subcutaneous injection of 50 μl of 10 mg/ml of orthovanadate. On day 10 the treatment was stopped. The animals were sacrificed on Day 13 and analyzed for tumor growth.

jun = experiment: Northern blot analysis of jun mRNA expression in chondrocytes; format: cell-based, bovine
Source text: The cytokine interleukin 1 (IL 1) has been used to identify the intermediate second messengers which regulate the expression of fos and jun.
Although IL 1 stimulated superoxide production, it was not known whether IL 1 induced fos and jun expression was dependent on the production of superoxides. In order to elucidate this possibility, the effect of DPI on fos and jun mRNA levels induced by IL 1 was investigated. RNA from chondrocytes treated with IL 1 in the presence and absence of DPI were analyzed by Northern blot analysis using either fos or collagenase cDNA probes. […] Similar data has been obtained for IL 1 induced jun expression. Furthermore, inhibition of fos and jun expression by DPI was sufficient to suppress IL 1 induced and constitutive collagenase expression.
Bovine articular chondrocytes were isolated and plated as previously described (Kandel R. A. et al. Biochim. Biophys. Acta. 1053, 130-134, 1990). In order to determine the effect of orthovanadate on IL 1 and PMA (phorbol ester) induced responses, chondrocytes were incubated with orthovanadate (100 μM) for 2 hours before stimulation with IL 1 (10 ng/ml) or PMA ([…]). collagenase production was determined by incubating chondrocytes for 24 hours with IL 1 or PMA and the cell conditioned medium was assayed for collagenase activity using an ELISA procedure as described previously (Kandel et al. supra) PLA2 activity was measured by incorporating ^3 H-arachidonic acid (^3 H-AA) into the cells and then incubating the cells with medium containing 1 mg/ml BSA, either alone or in the presence of IL 1 or PMA, for 10 min. as previously described (Conquer, J. A. […], Biochim. Biophys. Acta. 1134, 1-6). The amount of ^3 H-AA liberated into the supernatant was determined. To measure PGE2 production, chondrocytes were incubated for 6 hours in Ham's F12 medium, either alone or with IL 1 or PMA. The supernatant was analyzed by RIA using an antibody specific for PGE2 (Dr. S. A. Jones, Mount Sinai Hospital, Toronto, Can.). In order to examine the expression of c-fos and c-jun, chondrocytes were incubated for 1 hour in the presence of IL-1, PMA or AA (3 μM). Chondrocytes were washed in PBS and the total RNA extracted as previously described (Cruz. et al, 1991, Biochem. J. 277, 327-330). RNA samples were run on formaldehyde agarose gels and transferred to nylon membrane for northern analysis using cDNA probes for c-fos and c-jun.

For `[O]=[V]([O-])([O-])[O-]` [orthovanadate], the “levels of superoxides and H2O2 in cells” value (superoxides and H2O2) was “indirectly reduce”, the “tumor size (five mice)” value (MDAY-D2 [1]; 10 mg/ml s.c. daily, day 14, five of 10 mice) was “less than 0.16 gms” and the “mice without detectable tumors” value (MDAY-D2 [1]; 10 mg/ml, 50 μl s.c. daily, day 14, of 10 mice, FIG. 12) was 2 mice. For the same molecule, the “tumor size of treated mice versus untreated” value (MDAY-D2 [1]; FIG. 11) was “either undetectable or considerably smaller”, the “levels of metastases in liver” value (MDAY-D2 [2]; 500 μg/day, FIG. 16) was “did not have detectable levels of metastases” and the “effectiveness at preventing metastases” value (MDAY-D2 [2]; preliminary results, liver histology) was “effective at preventing metastases”. The “effectiveness in killing MDAY-D2 cells” value (MDAY-D2 cells) was “equally effective”, the “animals that died during the experiment” value (MDAY-D2 [3]; 10 mg/ml s.c. daily, group of five mice) was “One orthovanadate treated animal died” and the “animals without detectable tumors” value (MDAY-D2 [3]; day 13, FIG. 14, orthovanadate: of four mice, combination: of five) was “two had no detectable tumors”. For the same molecule, the “IL 1, PMA and AA induced c-jun expression” value (jun; orthovanadate 100 μM, FIGS. 4 and 18) was “completely inhibited” and the “jun expression in response to factors such as IL 1 or arachidonic acid” value (jun; summary statement) was “completely inhibit”.
